Test results taken from patent US8414911B2, “Photochemical therapy to affect mechanical and/or chemical properties of body tissue” (The Regents of the University of California, priority 2006, dated 2013).
“Also recorded” adds a separate entry of the source.

Columns and labels:
human and porcine sclera = human and porcine sclera in vitro; cited from earlier work
porcine sclera sections = assay: Rheometric analysis of sclera sections (modulus pre- and post-treatment); details: photoinitiator alone, compared with photoinitiator plus PEGDM
Excerpt: The ability of initiator with or without crosslinking compounds to strengthen the sclera was initially evaluated using rheometric analysis of tissue sections. Sclera sections (8 mm diameter) were cut from porcine eyes and tested on a TA Instruments AR1000 rheometer (using a cleated parallel plate geometry) to quantify changes in modulus pre- and post-treatment. Two example photoinitiators were selected for initial evaluation.

[1] = system: sclera of enucleated eyes; assay: Ocular inflation model of myopia (enucleated eyes, elevated IOP 85 mmHg); design: species or system New Zealand White Rabbits; details: 0.3% soak 5 min, 10 mW/cm^2, 365 nm, 10 min anterior and 10 min posterior
Description: Stabilization of ocular shape is evaluated in vitro using pairs of enucleated eyes from young (˜1-2 weeks) New Zealand White Rabbits, one eye treated and the fellow eye as control. To mimic and accelerate aspects of the loading geometry present in vivo, the intact globes are mechanically tested by imposing an elevated intraocular pressure: a syringe connects the intraocular fluid to an elevated reservoir of Dulbecco's phosphate buffered saline (DPBS) while the exterior of the eye is immersed in DPBS at ambient pressure (FIG. 1).
The size and shape of the globes are simultaneously recorded from two orthogonal perspectives over time. To prepare eyes for the tests, the epithelium is optionally removed from the cornea with a cotton swab, and external fat is removed from the globe. (Note that permeation of the photoinitiator into tissue is examined separately below.) The eyes are then soaked in control (Dulbecco's PBS) or treatment solutions (e.g., 0.029 mM Eosin Y, 90 mM TEOA, in DPBS) for 5 min. After soaking, the eyes are patted dry to remove extra solution from the surface, and then irradiated for 5 min from the front and 5 min from the back with, e.g., 34 mW/cm^2 at 500±50 nm for Eosin Y/TEOA. […] Photographs taken every 10 minutes for approximately 24 hours are analyzed to quantify the extension of the cornea and sclera.

[2] = after use of topically applied proparacaine (Ehlers et al.); cited from earlier work

| Structure (SMILES) | increase of Young's modulus compared to untreated controls (human and porcine sclera) | other results |
| --- | --- | --- |
| O=CC(O)CO (stereo not drawn) [glyceraldehyde] | 34% | – |
| O=CCCCC=O [Glutaraldehyde] | 122% | – |
| CC(C)(O)C(=O)c1ccc(OCCO)cc1 [compound 12959, 2-hydroxy-1-[4-(2-hydroxyethoxy)phenyl]-2-methyl-1-propanone] | – | increases in modulus (porcine sclera sections): comparable increases in modulus; stabilization of eye shape / sclera under elevated IOP [1]: hold a steady shape; also recorded: stabilize the sclera |
| CCCOc1ccc(C(=O)OCCN(CC)CC)cc1N [proparacaine] | – | increases in drug delivery to the aqueous [2]: 4 fold |
| Cc1cc2nc3c(=O)[nH]c(=O)nc-3n(C[C@H](O)[C@H](O)[C@H](O)CO)c2cc1C [riboflavin-UVA, riboflavin] | 29% | – |
